Experimental data published in ChEMBL document CHEMBL1132469 (J Med Chem, 1999).
pIC50: −log10 of the molar value.

Tests used:
Histone deacetylase HD2 [1] = molecular target: T1, Histone deacetylase HD2 (Zea mays, UniProt Q94F81); assay: Inhibition of maize Histone Deacetylase 2 (HD-2) activity (inactive at 40 uM)
T1 sequence (Q94F81 whole entry): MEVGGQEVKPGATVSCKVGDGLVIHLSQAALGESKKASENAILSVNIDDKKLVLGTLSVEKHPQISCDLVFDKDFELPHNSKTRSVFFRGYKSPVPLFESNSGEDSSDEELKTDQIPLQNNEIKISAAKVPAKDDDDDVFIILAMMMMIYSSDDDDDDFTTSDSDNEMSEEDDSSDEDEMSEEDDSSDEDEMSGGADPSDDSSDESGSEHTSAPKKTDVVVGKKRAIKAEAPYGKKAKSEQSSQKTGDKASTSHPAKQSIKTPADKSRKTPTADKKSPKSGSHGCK

Histone deacetylase HD2 [2] = molecular target: T1, Histone deacetylase HD2; assay: Inhibition of maize Histone deacetylase 2 (HD-2) activity

For `CN(C)c1ccc(C(=O)Nc2ccc(CC(=O)O)cc2)cc1`, which IC50 (Histone deacetylase HD2 [1]) is on record?
Its IC50 is “Not Active”.

`CN(C)c1ccc(C(=O)Nc2ccc(CC(=O)NO)cc2)cc1` was tested. Which IC50 (Histone deacetylase HD2 [1]) did it give?
Its IC50 is “Not Active”.

`CN(C)c1ccc(C(=O)NCCCCCC(=O)NO)cc1` was tested. Which pIC50 (Histone deacetylase HD2 [2]) did it give?
Its pIC50 is 7.00.

With `CN(C)c1ccc(C(=O)NCc2ccc(C(=O)NO)cc2)cc1` as the compound, how does the pIC50 (Histone deacetylase HD2 [2]) read?
Its pIC50 is 6.74.

`CN(C)c1ccc(C(=O)NCCCCCCC(=O)NO)cc1` was tested. Which pIC50 (Histone deacetylase HD2 [2]) did it give?
Its pIC50 is 7.00.

For `O=C(O)CCCCCNC(=O)c1ccccc1`, which IC50 (Histone deacetylase HD2 [1]) is on record?
Its IC50 is “Not Active”.

With `CN(C)c1ccc(C(=O)NCCCCC(=O)NO)cc1` as the compound, how does the pIC50 (Histone deacetylase HD2 [2]) read?
The pIC50 was 5.70.
